Data on three compounds can be found in patent US20080064726A1, “Pyrrolidine Derivatives” (priority 2004, published 2008).

Where two headings read alike, the source gives them in different places.

Series [1] addresses T1, DPP-IV purified from pig kidney (Sus scrofa, UniProt P22411).
T1 construct: DPP-rIV purified from pig kidney (Sigma); purchased Sigma; host or cells: pig kidney tissue
Nature of the series: Test for determination of DPP-IV inhibitory activity (Gly-Pro-AMC fluorescence). It counts as biochemical. To be noted: room temperature, 60 minutes, 0.05 mM Gly-Pro-AMC. The method, then:
Procedure of DPP-IV activity measurement is as follows. The reaction was performed in a 96-well plate.
Reaction solutions (100 μl/well) obtained by adding a test substance at various concentrations to a solution containing 50 mM of Tris HCl, 150 mM of sodium chloride, a 0.1% triton X-100, 0.3 mU/mI of DPP-rIV purified from pig kidney (Sigma), and 0.05 mM of Gly-Pro-AMC (Bachem) were incubated at a room temperature for 60 minutes, and then fluorescence intensities (Excitation: 355 nm, Emission: 460 nm) of the reaction solutions were measured (ARVO, Perkin Elmer). The data of 3 Wells under the same conditions were averaged.
The inhibition in the test group, relative to the solvent-added group was calculated, and the IC50 value thereof was obtained through logistic analysis.

Another series can be described thus: PK test in rats. It counts as in vivo. To be noted: for BA, compound measured = compound tested / AUC(0-inf): male SD rats; for BA, compound measured = compound tested: oral 3 mg/kg vs intravenous 1 mg/kg; for AUC(0-inf): rat, oral 3 mg/kg, plasma, read-out: AUC0→∞, compound measured = compound tested. The protocol: Each three animals were used for each point. Plasma was collected from the blood obtained by such a blood collection and concentration of the compound in plasma was measured using LC/MS/MS (2695, Waters and TSQ Quantum, ThermoFinnigan).
On the basis of concentration of the compound in the plasma determined by the measurement, an area under curve (AUC) of the drug concentration in plasma vs. time was calculated and, from the ratio of AUC by oral administration to AUC by intravenous injection, bioavailability (BA) was calculated. With regard to the BA value by administration of the compound of the present invention, each of concentrations in plasma of the compound X and the compound of the present invention was calculated.

The nature of series [2]: PK test in cynomolgus monkey. It is filed as in vivo. To be noted: male cynomolgus monkeys; for BA, compound measured = compound tested: oral 3 mg/kg vs intravenous 1 mg/kg, monohydrochloride. The method, then:
Male cynomolgus monkeys of four year old (K. K. Cary; the country of origin: Vietnam) were fasted for 16 hours before administration (feed was given after 4 hours from administration), a test compound dissolved in distilled water was orally administered at a dose of 3 mg/kg and blood was collected from forearm cephalic vein after 0.25, 0.5, 1, 2, 4, 8 and 24 hours from administration of the compound. In addition, cynomolgus monkeys to which no drug was administered for 7 days after the oral administration were fasted during 16 hours before administration (feed was given after 4 hours from administration), a test compound dissolved in distilled water was administered at the dose of 1 mg/kg from forearm cephalic vein and blood was collected from the forearm cephalic vein after 0.1, 0.25, 0.5, 1, 2, 4, 8 and 24 hours from administration of the compound. For each of the administrations, three animals were used. Plasma was collected by centrifugal separation of the blood obtained by such a blood collection and concentration of the compound in the plasma was measured by LC/MS/MS (2695, Waters and TSQ Quantum, ThermoFinnigan).

Another series deals with T2, plasma DPP-IV activity (Mus musculus, UniProt P28843).
T2 construct: from tissue; host or cells: plasma of male ICR mice after oral dosing
Nature of the series: Test for DPP-IV inhibiting activity duration in mice (plasma DPP-IV activity after oral administration). It counts as in vivo. To be noted: male ICR mice, 10 mg/kg oral. The protocol:
Male ICR mice (Nippon SLC) were grouped into a test group and a control group of 5 subjects each. A test compound (10 mg/kg) was dissolved in purified water, and orally administered. Purified water alone was orally administered to the mice of the control group. One half and 12 hours after the administration, the blood was collected from each mouse through the orbital venous plexus thereof. The collected blood was immediately centrifuged to isolate the plasma, and the DPP-IV activity of the plasma was measured.
The process of plasma DPP-IV activity determination was as follows: The reaction was performed in a 96-well plate. 5 μl of the collected plasma was added to an aqueous solution (95 μl/well) comprises 25 mM Tris-HCl, 140 mM sodium chloride, 10 mM potassium-chloride, 1% bovine serum albumin, and 0.01 mM Gly-Pro-AMC (Bachem), and incubated at room temperature for 20 minutes. The fluorescence intensity (excitation 355 nm/emission 460 nm) of each well was measured (ARVO, Perkin Elmer).
The fluorescent intensity of the well, to which was added the plasma collected from the control group, was 100%. Based on it, the DPP-IV activity of the plasma collected from the test compound administered mice was calculated, and the activity difference between the control group and the test group was obtained. This indicated the inhibition in the test group.

Where [3] appears, read: 0.5 hour, read-out: Inhibitory Rate after 0.5 Hour from Administration.
Where [4] appears, read: 12 hours, read-out: Inhibitory Rate after 12 Hours from Administration.

T2 sequence (P28843 38-760 limits assumed): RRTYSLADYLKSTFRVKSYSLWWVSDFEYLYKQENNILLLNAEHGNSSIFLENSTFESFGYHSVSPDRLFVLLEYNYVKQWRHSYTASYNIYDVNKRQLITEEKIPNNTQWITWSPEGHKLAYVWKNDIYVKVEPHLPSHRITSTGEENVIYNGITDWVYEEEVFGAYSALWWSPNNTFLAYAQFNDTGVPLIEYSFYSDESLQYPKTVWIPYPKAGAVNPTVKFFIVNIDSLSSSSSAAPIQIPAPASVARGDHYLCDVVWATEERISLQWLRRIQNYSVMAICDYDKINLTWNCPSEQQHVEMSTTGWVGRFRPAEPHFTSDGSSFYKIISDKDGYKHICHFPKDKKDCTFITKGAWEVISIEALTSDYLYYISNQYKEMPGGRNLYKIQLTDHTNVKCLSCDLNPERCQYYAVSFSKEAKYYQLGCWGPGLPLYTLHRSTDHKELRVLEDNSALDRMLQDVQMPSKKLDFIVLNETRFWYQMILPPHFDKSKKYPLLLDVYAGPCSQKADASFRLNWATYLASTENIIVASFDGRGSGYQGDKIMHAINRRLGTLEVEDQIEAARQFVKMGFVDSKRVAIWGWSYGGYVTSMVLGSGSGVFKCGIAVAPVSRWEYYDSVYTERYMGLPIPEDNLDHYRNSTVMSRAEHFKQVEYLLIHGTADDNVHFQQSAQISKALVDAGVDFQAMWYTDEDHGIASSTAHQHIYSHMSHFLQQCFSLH
T1 sequence (P22411 whole entry): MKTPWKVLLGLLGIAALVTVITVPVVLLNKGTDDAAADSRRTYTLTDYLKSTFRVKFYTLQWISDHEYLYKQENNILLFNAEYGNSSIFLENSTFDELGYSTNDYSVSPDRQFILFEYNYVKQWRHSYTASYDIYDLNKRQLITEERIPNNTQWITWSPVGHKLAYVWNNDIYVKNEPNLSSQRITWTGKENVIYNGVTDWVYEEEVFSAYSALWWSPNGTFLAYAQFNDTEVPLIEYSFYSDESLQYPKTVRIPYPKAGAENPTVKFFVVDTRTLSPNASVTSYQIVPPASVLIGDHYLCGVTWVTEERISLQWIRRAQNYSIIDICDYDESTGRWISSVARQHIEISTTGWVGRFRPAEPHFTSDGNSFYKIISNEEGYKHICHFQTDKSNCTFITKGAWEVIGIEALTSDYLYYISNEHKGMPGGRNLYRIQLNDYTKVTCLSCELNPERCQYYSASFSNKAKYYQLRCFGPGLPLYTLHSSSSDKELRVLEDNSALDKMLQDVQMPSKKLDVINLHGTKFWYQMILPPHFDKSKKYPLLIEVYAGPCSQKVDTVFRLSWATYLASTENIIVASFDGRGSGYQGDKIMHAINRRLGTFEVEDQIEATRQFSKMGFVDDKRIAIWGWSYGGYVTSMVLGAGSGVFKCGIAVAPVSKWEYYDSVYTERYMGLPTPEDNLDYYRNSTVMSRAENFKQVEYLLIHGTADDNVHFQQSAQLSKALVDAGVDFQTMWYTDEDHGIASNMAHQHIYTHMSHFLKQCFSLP

For the compound `CC1(NCC(=O)N2C[C@@H](F)C[C@H]2C#N)CCN(C(=O)CO)CC1.Cl` [Compound X, (2S,4S)-4-fluoro-1-{[(1-glycoloyl-4-methylpiperidin-4-yl)amino]acetyl}pyrrolidine-2-carbonitrile monohydrochloride], the IC50 in series [1] was 15 nM. The “BA, compound measured = compound tested” value in the series “PK test in rats” is given as 16%; in series [2] (listed as compound X), 13%; in series [2], 13 ± 5%. Also, the AUC(0-inf) was 138 ng·h/mL in “PK test in rats” and 278 ± 104 ng·h/mL in series [2] (cynomolgus monkey, oral 3 mg/kg, plasma, read-out: AUC0→∞, compound measured = compound tested).
Turning to `COCC(=O)N1CCC(NCC(=O)N2CCC[C@H]2C#N)CC1` [Compound Y], the inhibition at 10 mg/kg on plasma DPP-IV activity (setting [3]) turned out to be 90%; at plasma DPP-IV activity (setting [4]), 33%.
In series [1], `CC(=O)OCC(=O)N1CCC(C)(NCC(=O)N2C[C@@H](F)C[C@H]2C#N)CC1` [Example 1, 2-[4-({2-[(2S,4S)-2-cyano-4-fluoropyrrolidin-1-yl]-2-oxoethyl}amino)-4-methylpiperdin-1-yl]-2-oxoethyl acetate monofumarate] displayed a half-maximal inhibitory concentration (IC50) of 15 nM. Further, the inhibition at 10 mg/kg on plasma DPP-IV activity (setting [3]) turned out to be 95%. Also, on plasma DPP-IV activity (setting [4]), the inhibition at 10 mg/kg worked out at 84%. In “PK test in rats”, the “BA, compound measured = compound tested” value worked out at 77% and the AUC(0-inf) was determined as 43 ng·h/mL. The “Increase of AUC (sum of tested compound and compound X in plasma) compared with AUC when compound X was administered” value in “PK test in rats” (rats, oral administration) was “about fourfold”. Moreover, in series [2] (oral 3 mg/kg, plasma), the “AUC0→∞, compound measured = compound tested” value is recorded as “not detected”.

The IC50 is the concentration that gives 50% inhibition.
